# Tested on: Annual Ryegrass (LOLRI)
# Test: Field trials throughout Australia, annual ryegrass (LOLRI) counts
# Assay type: in vivo
# Details: for % control: from mean vs untreated control; for Mean Plants/m2: mean of the seven trials
# Procedure: A series of field trials were conducted throughout Australia to assess the performance of Example 5 composition (400 g/L trifluralin+117 g/L cinmethylin+UAN compatibiliser) versus the performance of either trifluralin or cinmethylin applied as standalone treatments.
# All trials were sown under a knifepoint/reduced tillage seeding systems with trial design and management reflecting common district and grower practice. Rates of herbicide application were designed to allow comparison of the co-mixture and solvency package against the relative merits of either active ingredient applied alone in their currently available commercial formulation package (see table below).
# Products were applied prior to sowing and were applied in water with industry accepted application equipment and spray nozzles.
smiles,measurement,setting,value
"CCCN(CCC)c1c([N+](=O)[O-])cc(C(F)(F)F)cc1[N+](=O)[O-] [Trifluralin, trifluralin]",LOLRI Plants/m2,"720 gai/ha, Vic Lentils 81-DAT",26 Plants/m2
same,LOLRI Plants/m2,"720 gai/ha, Vic Lentils H02 51-DAT",21 Plants/m2
same,LOLRI Plants/m2,"720 gai/ha, Vic Wheat 49-DAT",105 Plants/m2
same,LOLRI Plants/m2,"720 gai/ha, Vic Wheat H03 79-DAT",168 Plants/m2
same,LOLRI Plants/m2,"720 gai/ha, WA Canola W06-197 27-DAT",264 Plants/m2
same,LOLRI Plants/m2,"720 gai/ha, WA Lupins W06-200 19-DAT",224 Plants/m2
same,LOLRI Plants/m2,"720 gai/ha, WA Wheat W06-196 27-DAT",191 Plants/m2
same,% control,720 gai/ha,63%
same,Mean Plants/m2,720 gai/ha,143 Plants/m2
same,LOLRI Plants/m2,"960 gai/ha, Vic Lentils 81-DAT",22 Plants/m2
same,LOLRI Plants/m2,"960 gai/ha, Vic Lentils H02 51-DAT",19 Plants/m2
same,LOLRI Plants/m2,"960 gai/ha, Vic Wheat 49-DAT",10 Plants/m2
same,LOLRI Plants/m2,"960 gai/ha, Vic Wheat H03 79-DAT",22 Plants/m2
same,LOLRI Plants/m2,"960 gai/ha, WA Canola W06-197 27-DAT",208 Plants/m2
same,LOLRI Plants/m2,"960 gai/ha, WA Lupins W06-200 19-DAT",169 Plants/m2
same,LOLRI Plants/m2,"960 gai/ha, WA Wheat W06-196 27-DAT",207 Plants/m2
same,% control,960 gai/ha,76%
same,Mean Plants/m2,960 gai/ha,94 Plants/m2
same,LOLRI Plants/m2,"1440 gai/ha, Vic Lentils 81-DAT",23 Plants/m2
same,LOLRI Plants/m2,"1440 gai/ha, Vic Lentils H02 51-DAT",14 Plants/m2
same,LOLRI Plants/m2,"1440 gai/ha, Vic Wheat 49-DAT",29 Plants/m2
same,LOLRI Plants/m2,"1440 gai/ha, Vic Wheat H03 79-DAT",33 Plants/m2
same,LOLRI Plants/m2,"1440 gai/ha, WA Canola W06-197 27-DAT",156 Plants/m2
same,LOLRI Plants/m2,"1440 gai/ha, WA Lupins W06-200 19-DAT",184 Plants/m2
same,LOLRI Plants/m2,"1440 gai/ha, WA Wheat W06-196 27-DAT",135 Plants/m2
same,% control,1440 gai/ha,79%
same,Mean Plants/m2,1440 gai/ha,82 Plants/m2
Cc1ccccc1CO[C@@H]1C[C@@]2(C(C)C)CC[C@]1(C)O2 (racemic) [Cinmethylin],LOLRI Plants/m2,"100 gai/ha, Vic Lentils 81-DAT",18 Plants/m2
same,LOLRI Plants/m2,"100 gai/ha, Vic Lentils H02 51-DAT",15 Plants/m2
same,LOLRI Plants/m2,"100 gai/ha, Vic Wheat 49-DAT",69 Plants/m2
same,LOLRI Plants/m2,"100 gai/ha, Vic Wheat H03 79-DAT",136 Plants/m2
same,LOLRI Plants/m2,"100 gai/ha, WA Canola W06-197 27-DAT",419 Plants/m2
same,LOLRI Plants/m2,"100 gai/ha, WA Lupins W06-200 19-DAT",503 Plants/m2
same,LOLRI Plants/m2,"100 gai/ha, WA Wheat W06-196 27-DAT",300 Plants/m2
same,% control,100 gai/ha,46%
same,Mean Plants/m2,100 gai/ha,208 Plants/m2
same,LOLRI Plants/m2,"200 gai/ha, Vic Lentils 81-DAT",10 Plants/m2
same,LOLRI Plants/m2,"200 gai/ha, Vic Lentils H02 51-DAT",8 Plants/m2
same,LOLRI Plants/m2,"200 gai/ha, Vic Wheat 49-DAT",67 Plants/m2
same,LOLRI Plants/m2,"200 gai/ha, Vic Wheat H03 79-DAT",78 Plants/m2
same,LOLRI Plants/m2,"200 gai/ha, WA Canola W06-197 27-DAT",307 Plants/m2
same,LOLRI Plants/m2,"200 gai/ha, WA Lupins W06-200 19-DAT",235 Plants/m2
same,LOLRI Plants/m2,"200 gai/ha, WA Wheat W06-196 27-DAT",264 Plants/m2
same,% control,200 gai/ha,64%
same,Mean Plants/m2,200 gai/ha,138 Plants/m2
same,LOLRI Plants/m2,"400 gai/ha, Vic Lentils 81-DAT",14 Plants/m2
same,LOLRI Plants/m2,"400 gai/ha, Vic Lentils H02 51-DAT",10 Plants/m2
same,LOLRI Plants/m2,"400 gai/ha, Vic Wheat 49-DAT",22 Plants/m2
same,LOLRI Plants/m2,"400 gai/ha, Vic Wheat H03 79-DAT",19 Plants/m2
same,LOLRI Plants/m2,"400 gai/ha, WA Canola W06-197 27-DAT",324 Plants/m2
same,LOLRI Plants/m2,"400 gai/ha, WA Lupins W06-200 19-DAT",124 Plants/m2
same,LOLRI Plants/m2,"400 gai/ha, WA Wheat W06-196 27-DAT",229 Plants/m2
same,% control,400 gai/ha,73%
same,Mean Plants/m2,400 gai/ha,106 Plants/m2

# From US20080254983A1, “Herbicide Composition” (NUFARM AUSTRALIA LIMITED, priority 2005, published 2008)
